Target: T1, human LPA1 (Homo sapiens, UniProt Q92633)
T1 construct: the full-length cDNA for human LPA1 was obtained by PCR of the reverse transcription reaction; expressed in transfected cells
Test: LPA1 calcium flux assay
Assay type: cell-based
Details: CHO cells expressing human LPA1, stimulated with 10 nM LPA; read-out: HLPA1 Ca Flux IC50
Outline: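 Antagonism measured as block of 10 nM LPA-evoked calcium rise in stable human LPA1-CHO cells. After overnight serum-free culture and 1 h dye loading at 37 °C (buffer with 0.3% fatty-acid-free albumin), compound was added for 30 min at room temperature. Titration curves gave IC50.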

T1 sequence (Q92633 whole entry): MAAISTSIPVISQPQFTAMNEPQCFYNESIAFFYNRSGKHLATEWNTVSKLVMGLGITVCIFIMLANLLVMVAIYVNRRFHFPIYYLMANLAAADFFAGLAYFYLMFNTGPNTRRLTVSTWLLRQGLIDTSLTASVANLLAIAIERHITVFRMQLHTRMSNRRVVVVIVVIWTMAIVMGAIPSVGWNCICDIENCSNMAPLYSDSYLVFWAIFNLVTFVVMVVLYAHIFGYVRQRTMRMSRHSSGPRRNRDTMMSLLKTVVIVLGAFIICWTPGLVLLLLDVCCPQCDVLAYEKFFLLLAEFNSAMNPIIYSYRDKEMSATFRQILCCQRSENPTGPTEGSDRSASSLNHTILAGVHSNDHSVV

| Compound | IC50 [nM] |
| --- | --- |
| Cc1noc(-c2ccc(-c3ccc(C4(C(=O)O)CC4)cc3)cc2)c1C=CCC(C)c1ccccc1 (centres unmarked) [Compound 1-110, 1-{4′-[3-Methyl-4-(4-phenyl-pent-1-enyl)-isoxazol-5-yl]-biphenyl-4-yl}-cyclopropanecarboxylic acid] | < 300 |
| Cc1noc(-c2ccc(-c3ccc(C4(C(=O)O)CC4)cc3)cc2)c1C=CC(C)Cc1ccc(C(C)C)cc1 (centres unmarked) [Compound 1-111, 1-(4′-{4-[4-(4-Isopropyl-phenyl)-3-methyl-but-1-enyl]-3-methyl-isoxazol-5-yl}-biphenyl-4-yl)-cyclopropanecarboxylic acid] | 1000 to 50000 |
| Cc1noc(-c2ccc(-c3ccc(C4(C(=O)O)CC4)cc3)cc2)c1/C=C\CC(C)c1ccccc1 (centres unmarked) [Compound 1-112, 1-{4′-[3-Methyl-4-((Z)-4-phenyl-pent-1-enyl)-isoxazol-5-yl]-biphenyl-4-yl}-cyclopropanecarboxylic acid] | < 300 |
| Cc1noc(-c2ccc(-c3ccc(C4(C(=O)O)CC4)cc3)cc2)c1/C=C/CC(C)c1ccccc1 (centres unmarked) [Compound 1-113, 1-{4′-[3-Methyl-4-((E)-4-phenyl-pent-1-enyl)-isoxazol-5-yl]-biphenyl-4-yl}-cyclopropanecarboxylic acid] | 1000 to 50000 |
| Cc1noc(-c2ccc(-c3ccc(C4(C(=O)O)CC4)cc3)cc2)c1C(O)C/C=C/c1ccccc1 (centres unmarked) [Compound 1-115, 1-{4′-[4-((E)-1-Hydroxy-4-phenyl-but-3-enyl)-3-methyl-isoxazol-5-yl]-biphenyl-4-yl}-cyclopropanecarboxylic acid] | < 300 |
| Cc1noc(-c2ccc(-c3ccc(C4(C(=O)O)CC4)cc3)cc2)c1CCC(=O)N(C)C(C)(C)c1ccccc1 [Compound 1-118, 1-[4′-(3-Methyl-4-{2-[methyl-(1-methyl-1-phenyl-ethyl)-carbamoyl]-ethyl}-isoxazol-5-yl)-biphenyl-4-yl]-cyclopropanecarboxylic acid] | 1000 to 50000 |
| Cc1noc(-c2ccc(-c3ccc(C4(C(=O)O)CC4)cc3)cc2)c1CCC(=O)N(C)CC1CC1 [Compound 1-119, 1-(4′-{4-[2-(Cyclopropylmethyl-methyl-carbamoyl)-ethyl]-3-methyl-isoxazol-5-yl}-biphenyl-4-yl)-cyclopropanecarboxylic acid] | 300 to 1000 |
| Cc1noc(-c2ccc(-c3ccc(C4(C(=O)O)CC4)cc3)cc2)c1CSCC(=O)c1ccccc1 [Compound 1-120, 1-{4′-[3-Methyl-4-(2-oxo-2-phenyl-ethylsulfanylmethyl)-isoxazol-5-yl]-biphenyl-4-yl}-cyclopropanecarboxylic acid] | 1000 to 50000 |
| CCC(C(=O)O)c1ccc(-c2ccc(-c3onc(C)c3CSCCc3ccccc3)cc2)cc1 (centres unmarked) [Compound 1-122, 2-[4′-(3-Methyl-4-phenethylsulfanylmethyl-isoxazol-5-yl)-biphenyl-4-yl]-butyric acid] | < 300 |
| Cc1noc(-c2ccc(-c3ccc(C(C)C(=O)O)cc3)cc2)c1CSCCc1ccccc1 (centres unmarked) [Compound 1-123, 2-[4′-(3-Methyl-4-phenethylsulfanylmethyl-isoxazol-5-yl)-biphenyl-4-yl]-propionic acid] | < 300 |
| Cc1noc(-c2ccc(-c3ccc(C4(C(=O)O)CC4)cc3)cc2)c1C(=O)CCCc1ccccc1 [Compound 1-124, 1-{4′-[3-Methyl-4-(4-phenyl-butyryl)-isoxazol-5-yl]-biphenyl-4-yl}-cyclopropanecarboxylic acid] | 1000 to 50000 |
| Cc1noc(-c2ccc(-c3ccc(C4(CC(=O)O)CC4)cc3)cc2)c1CSCCc1ccccc1 [Compound 1-125, {1-[4′-(3-Methyl-4-phenethylsulfanylmethyl-isoxazol-5-yl)-biphenyl-4-yl]-cyclopropyl}-acetic acid] | < 300 |
| Cc1noc(-c2ccc(-c3ccc(C4(C(=O)O)CC4)cc3)cc2)c1CCC(=O)N(C)C1CC1 [Compound 1-127, 1-(4′-{4-[2-(Cyclopropyl-methyl-carbamoyl)-ethyl]-3-methyl-isoxazol-5-yl}-biphenyl-4-yl)-cyclopropanecarboxylic acid] | 1000 to 50000 |
| Cc1noc(-c2ccc(-c3ccc(C(C)(C)C(=O)O)cc3)cc2)c1CSCCc1ccccc1 [Compound 1-133, 2-Methyl-2-[4′-(3-methyl-4-phenethylsulfanylmethyl-isoxazol-5-yl)-biphenyl-4-yl]-propionic acid] | < 300 |
| Cc1noc(-c2ccc(-c3ccc(C4(C(=O)O)CC4)cc3)cc2)c1C/C(CCc1ccccc1)=N/O [Compound 1-134, 1-[4′-(4-{2-[Hydroxyimino]-4-phenyl-butyl}-3-methyl-isoxazol-5-yl)-biphenyl-4-yl]-cyclopropanecarboxylic acid] | < 300 |
| Cc1noc(-c2ccc(-c3ccc(C(C)C(=O)O)cc3)cc2)c1CC(F)(F)CCc1ccccc1 (centres unmarked) [Compound 1-136, 2-{4′-[4-(2,2-Difluoro-4-phenyl-butyl)-3-methyl-isoxazol-5-yl]-biphenyl-4-yl}-propionic acid] | < 300 |

| Compound | IC50 [nM] |
| --- | --- |
| Cc1noc(-c2ccc(-c3ccc(C(C(=O)O)C(C)C)cc3)cc2)c1CSCCc1ccccc1 (centres unmarked) [Compound 1-137, 3-Methyl-2-[4′-(3-methyl-4-phenethylsulfanylmethyl-isoxazol-5-yl)-biphenyl-4-yl]-butyric acid] | < 300 |
| CC(=O)N(Cc1ccccc1)CC(O)Cc1c(C)noc1-c1ccc(-c2ccc(C3(C(=O)O)CC3)cc2)cc1 (centres unmarked) [Compound 1-138, 1-(4′-{4-[3-(Acetyl-benzyl-amino)-2-hydroxy-propyl]-3-methyl-isoxazol-5-yl}-biphenyl-4-yl)-cyclopropanecarboxylic acid] | 1000 to 50000 |
| Cc1noc(-c2ccc(-c3ccc(C4(C(=O)O)CC4)cc3)cc2)c1/C=C/CN(Cc1ccccc1)S(C)(=O)=O [Compound 1-139, 1-(4′-{4-[3-(Benzyl-methanesulfonyl-amino)-propenyl]-3-methyl-isoxazol-5-yl}-biphenyl-4-yl)-cyclopropanecarboxylic acid] | < 300 |
| Cc1noc(-c2ccc(-c3ccc(C4(CC(=O)O)CC4)cc3)cc2)c1C(O)CCCc1ccccc1 (centres unmarked) [Compound 1-140, (1-{4′-[4-(1-Hydroxy-4-phenyl-butyl)-3-methyl-isoxazol-5-yl]-biphenyl-4-yl}-cyclopropyl)-acetic acid] | < 300 |
| CC(=O)N(CCc1c(C)noc1-c1ccc(-c2ccc(C3(C(=O)O)CC3)cc2)cc1)Cc1ccccc1 [Compound 1-142, 1-(4′-{4-[2-(Acetyl-benzyl-amino)-ethyl]-3-methyl-isoxazol-5-yl}-biphenyl-4-yl)-cyclopropanecarboxylic acid] | 1000 to 50000 |
| Cc1noc(-c2ccc(-c3ccc(C4(C(=O)O)CC4)cc3)cc2)c1CCN(Cc1ccccc1)S(C)(=O)=O [Compound 1-143, 1-(4′-{4-[2-(Benzyl-methanesulfonyl-amino)-ethyl]-3-methyl-isoxazol-5-yl}-biphenyl-4-yl)-cyclopropanecarboxylic acid] | 1000 to 50000 |
| Cc1noc(-c2ccc(-c3ccc(C(Cc4ccccc4)C(=O)O)cc3)cc2)c1CSCCc1ccccc1 (centres unmarked) [Compound 1-145, 2-[4′-(3-Methyl-4-phenethylsulfanylmethyl-isoxazol-5-yl)-biphenyl-4-yl]-3-phenyl-propionic acid] | < 300 |
| CCOC(CCCc1ccccc1)c1c(C)noc1-c1ccc(-c2ccc(C3(C(=O)O)CC3)cc2)cc1 (centres unmarked) [Compound 1-147, 1-{4′-[4-(1-Ethoxy-4-phenyl-butyl)-3-methyl-isoxazol-5-yl]-biphenyl-4-yl}-cyclopropanecarboxylic acid] | 300 to 1000 |
| COC(CCCc1ccccc1)c1c(C)noc1-c1ccc(-c2ccc(C3(C(=O)O)CC3)cc2)cc1 (centres unmarked) [Compound 1-148, 1-{4′-[4-(1-Methoxy-4-phenyl-butyl)-3-methyl-isoxazol-5-yl]-biphenyl-4-yl}-cyclopropanecarboxylic acid] | < 300 |
| Cc1noc(-c2ccc(-c3ccc(C4(C(=O)O)CC4)cc3)cc2)c1NCCC(C)(C)C [Compound 1-151, 1-{4′-[4-(3,3-Dimethyl-butylamino)-3-methyl-isoxazol-5-yl]-biphenyl-4-yl}-cyclopropanecarboxylic acid] | 300 to 1000 |
| Cc1noc(-c2ccc(-c3ccc(C4(C(=O)O)CC4)cc3)cc2)c1CO [Compound 1-152, 1-[4′-(4-Hydroxymethyl-3-methyl-isoxazol-5-yl)-biphenyl-4-yl]-cyclopropanecarboxylic acid] | 1000 to 50000 |
| Cc1noc(-c2ccc(-c3ccc(C4(C(=O)O)CC4)cc3)cc2)c1C(=O)CCc1ccccc1 [Compound 1-157, 1-{4′-[3-Methyl-4-(3-phenyl-propionyl)-isoxazol-5-yl]-biphenyl-4-yl}-cyclopropanecarboxylic acid] | 1000 to 50000 |
| Cc1noc(-c2ccc(-c3ccc(C4(C(=O)O)CC4)cc3)cc2)c1C(O)/C=C/c1ccccc1 (centres unmarked) [Compound 1-158, 1-{4′-[4-((E)-1-Hydroxy-3-phenyl-allyl)-3-methyl-isoxazol-5-yl]-biphenyl-4-yl}-cyclopropanecarboxylic acid] | < 300 |
| Cc1noc(-c2ccc(-c3ccc(C4(C(=O)O)CC4)cc3)cc2)c1C(=O)CCc1cccc(C(F)(F)F)c1 [Compound 1-160, 1-(4′-{3-Methyl-4-[3-(3-trifluoromethyl-phenyl)-propionyl]-isoxazol-5-yl}-biphenyl-4-yl)-cyclopropanecarboxylic acid] | 1000 to 50000 |
| Cc1noc(-c2ccc(-c3ccc(C4(C(=O)O)CC4)cc3)cc2)c1C(O)/C=C/c1cccc(C(F)(F)F)c1 (centres unmarked) [Compound 1-161, 1-(4′-{4-[(E)-1-Hydroxy-3-(3-trifluoromethyl-phenyl)-allyl]-3-methyl-isoxazol-5-yl}-biphenyl-4-yl)-cyclopropanecarboxylic acid] | < 300 |
| Cc1noc(-c2ccc(-c3ccc(CC(=O)O)cc3)cc2)c1NC(C)CCc1cccc(F)c1 (centres unmarked) [Compound 1-165, (4′-{4-[3-(3-Fluoro-phenyl)-1-methyl-propylamino]-3-methyl-isoxazol-5-yl}-biphenyl-4-yl)-acetic acid] | < 300 |
